Laboratory results: patent US20240115547A1, “PSYCHOTROPIC AGENTS AND USES THEREOF” (LB PHARMACEUTICALS INC., priority 2021, published 2024)
Where two headings read alike, the source gives them in different places.

Key:
[1] = PK analysis of LB-102 in healthy human subjects, single and multiple ascending doses (Example 2); format: in vivo; conditions: for half-life / Cmax / Tmax: both sexes, plasma, oral
Protocol: Healthy females and males between 18 and 55 years of age with BMI≥18 and ≤30 kg/m2 were enrolled in the study. Exclusion criteria included: history or presence of psychiatric disorder, drug or alcohol abuse, history of QT prolongation or dysrhythmia, fasting blood glucose level of 126 mg/dL, or a known allergy to the drug or its metabolites. The study was planned as a two part study. Part A was comprised of 5 single ascending dose groups, each of 8 subjects. Part B was comprised of 3 multiple ascending doses, two doses a day for 7 days ([…] doses in total) each of 8 subjects. All subjects were randomized 3:1 drug:placebo. The primary endpoint of the study was safety, with pharmacokinetics as a secondary objective.
Plasma concentrations of LB-102 were obtained as a function of time for single oral administration of LB-102 to human subjects at 10 mg (larger cross), 50 mg (triangle), 100 mg (square), 150 mg (smaller cross), and 200 mg (diamond), respectively, are further provided in FIG. 3.

[2] = system: Dopamine (e.g., D2/D3); experiment: Dopamine RO % by raclopride PET after LB-102, various dosage regimens (Example 3); format: in vivo, human; conditions: group mean

SMILES: CCN1CCCC1CNC(=O)c1cc(S(=O)(=O)CC)c(NC)cc1OC (stereo not drawn) [LB-102]
- AUC0-inf D1 ([1]; 50 mg every 12 hours, D1, mean (SD)): 1012.6 (100.4) ngh/mL
- AUC0-inf D7 ([1]; 50 mg every 12 hours, D7, mean (SD)): 2489.1 (312.4) ngh/mL
- CL/F ([1]; 50 mg every 12 hours, mean (SD)): 33.8 (3.1) L/h
- AUC relative to AUC of 50 mg amisulpride ([1]; 50 mg oral LB-102 vs published 50 mg amisulpride): about 2.5 times
- AUC0-inf D1 ([1]; 75 mg every 12 hours, D1, mean (SD)): 1777.9 (309.0) ngh/mL
- CL/F ([1]; 75 mg every 12 hours, mean (SD)): 34.9 (8.8) L/h
- AUC0-inf D1 ([1]; 100 mg every 12 hours, D1, mean (SD)): 2152.9 (439.9) ngh/mL
- accumulation across dose levels ([1]; MAD portion of the study): slight to moderate accumulation
- trough concentrations ([1]; MAD portion of the study): plateaued prior to the morning dose on Day 4
- half-life ([1]; human, 10 mg, single administration 10 mg, mean (SD), read-out: T1/2 (converted)): 13.7 h
- Cmax ([1]; human, 10 mg, single administration 10 mg, mean, read-out: Cmax): 24.1 ng/mL
- Tmax ([1]; human, 10 mg, single administration 10 mg, read-out: Tmax): 3 h
- Cmax ([1]; human, 50 mg, 50 mg every 12 hours, D1, mean (SD), read-out: Cmax D1): 126 ng/mL
- half-life ([1]; human, 50 mg, 50 mg every 12 hours, D1, mean (SD), read-out: T1/2 D1 (converted)): 4.2 h
- Tmax ([1]; human, 50 mg, 50 mg every 12 hours, D1, read-out: Tmax D1): 2.5 h
- Cmax ([1]; human, 50 mg, 50 mg every 12 hours, D7, mean (SD), read-out: Cmax D7): 224 ng/mL
- half-life ([1]; human, 50 mg, 50 mg every 12 hours, D7, mean (SD), read-out: T1/2 D7 (converted)): 14.3 h
- Tmax ([1]; human, 50 mg, 50 mg every 12 hours, D7, read-out: Tmax D7): 2.5 h
- half-life ([1]; human, 50 mg, single administration 50 mg, mean (SD), read-out: T1/2 (converted)): 11.9 h
- Cmax ([1]; human, 50 mg, single administration 50 mg, mean, read-out: Cmax): 176 ng/mL
- Tmax ([1]; human, 50 mg, single administration 50 mg, read-out: Tmax): 3 h
- Cmax ([1]; human, 75 mg, 75 mg every 12 hours, D1, mean (SD), read-out: Cmax D1): 267 ng/mL
- half-life ([1]; human, 75 mg, 75 mg every 12 hours, D1, mean (SD), read-out: T1/2 D1 (converted)): 4 h
- Tmax ([1]; human, 75 mg, 75 mg every 12 hours, D1, read-out: Tmax D1): 3 h
- Cmax ([1]; human, 75 mg, 75 mg every 12 hours, D7, mean (SD), read-out: Cmax D7): 309 ng/mL
- Tmax ([1]; human, 75 mg, 75 mg every 12 hours, D7, read-out: Tmax D7): 2 h
- Cmax ([1]; human, 100 mg, 100 mg every 12 hours, D1, mean (SD), read-out: Cmax D1): 325 ng/mL
- half-life ([1]; human, 100 mg, 100 mg every 12 hours, D1, mean (SD), read-out: T1/2 D1 (converted)): 4.12 h
- Tmax ([1]; human, 100 mg, 100 mg every 12 hours, D1, read-out: Tmax D1): 2.5 h
- half-life ([1]; human, 100 mg, single administration 100 mg, mean (SD), read-out: T1/2 (converted)): 14.1 h
- Cmax ([1]; human, 100 mg, single administration 100 mg, mean, read-out: Cmax): 348 ng/mL
- Tmax ([1]; human, 100 mg, single administration 100 mg, read-out: Tmax): 3 h
- half-life ([1]; human, 150 mg, single administration 150 mg, mean (SD), read-out: T1/2 (converted)): 12 h
- Cmax ([1]; human, 150 mg, single administration 150 mg, mean, read-out: Cmax): 596 ng/mL
- Tmax ([1]; human, 150 mg, single administration 150 mg, read-out: Tmax): 3 h
- half-life ([1]; human, 200 mg, single administration 200 mg, mean (SD), read-out: T1/2 (converted)): 13 h
- Cmax ([1]; human, 200 mg, single administration 200 mg, mean, read-out: Cmax): 976 ng/mL
- Tmax ([1]; human, 200 mg, single administration 200 mg, read-out: Tmax): 3 h
- metabolism of LB-102 to amisulpride ([1]; human (FIG. 2)): < 3%
- increase of exposure with dose ([1]; oral dosing, human): slightly greater than dose proportional
- absorption ([1]; orally dosed, human): rapidly absorbed
- AUC0-inf ([1]; single administration 10 mg, mean): 252.6 ngh/mL
- CL/F ([1]; single administration 10 mg, mean (SD)): 42.4 (12.6) L/h
- AUC0-inf ([1]; single administration 50 mg, mean): 1595.9 ngh/mL
- CL/F ([1]; single administration 50 mg, mean (SD)): 31.7 (3.8) L/h
- AUC0-inf ([1]; single administration 100 mg, mean): 2809.8 ngh/mL
- CL/F ([1]; single administration 100 mg, mean (SD)): 36.6 (6.9) L/h
- AUC0-inf ([1]; single administration 150 mg, mean): 4636.6 ngh/mL
- CL/F ([1]; single administration 150 mg, mean (SD)): 33.1 (5.3) L/h
- AUC0-inf ([1]; single administration 200 mg, mean): 7002.1 ngh/mL
- CL/F ([1]; single administration 200 mg, mean (SD)): 28.9 (3.4) L/h
- AUC ([1]; single oral administration of 50 mg to human subjects (FIG. 4B)): 1,595 ngh/mL
- Dopamine RO % (Caudate + Putamen) ([2]; 50 mg SS (once a day for 4 days), 8 h after Day 4 administration): 72%
- Dopamine RO % (Caudate + Putamen) ([2]; 75 mg QD, 48 h after LB-102 administration): 37%
